PubChem BioAssay (NCI)
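Five compound concentrations were applied to cells in 96-well plates for 48 hours; endpoints were derived by simple linear interpolation of the resulting dose-response curve. GI50 marks 50% less growth. TGI: total growth inhibition.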

What was measured:
Experiment in all cases: NCI tumour cell line growth inhibition, 48 h
[1] = tested on: EKVX NSCLC
[2] = tested on: CAKI-1 renal
[3] = tested on: HL-60(TB) leukemia
[4] = tested on: DLD-1 colon
[5] = tested on: MOLT-4 leukemia
[6] = tested on: SK-OV-3 ovarian
[7] = tested on: RXF 393 renal
[8] = tested on: DMS 114 small cell lung
[9] = tested on: RPMI-8226 leukemia
[10] = tested on: NCI/ADR-RES ovarian

In the case of `N#Cc1cccc(C2SCc3nc4ccccc4n32)c1` (stereo not drawn), the TGI [1] is reported as > 100 µM, the TGI [2] is reported as > 100 µM and the TGI [3] is reported as > 100 µM. The TGI [4] was > 100 µM, the TGI [5] was > 100 µM and the TGI [6] was > 100 µM. The TGI [7] was > 100 µM and the TGI [8] was > 100 µM.
`Cc1cc(Br)ccc1N=NC1C(=O)ON=C1c1ccccc1` (stereo not drawn) was tested, and the TGI [9] was > 100 µM, the TGI [1] was > 100 µM and the TGI [3] was > 100 µM. For the same compound, the TGI [4] was > 100 µM, the TGI [5] was > 100 µM and the TGI [6] was > 100 µM. For the same compound, the TGI [7] was > 100 µM and the TGI [8] was > 100 µM.
For `COc1cc(Br)c(C2OCCCO2)cc1OCc1ccccc1`, the TGI [9] was > 100 µM, the TGI [1] was > 100 µM and the TGI [3] was > 100 µM. The TGI [4] was > 100 µM, the TGI [5] was > 100 µM and the TGI [6] was > 100 µM. For the same compound, the TGI [7] was > 100 µM and the TGI [8] was > 100 µM.
`CCn1c(O)c(C(=O)Nc2cccs2)c(=O)n(CC)c1=S` gave a TGI [9] of 55.1 µM, a TGI [2] of 75.9 µM and a TGI [3] of 40 µM. The TGI [4] was > 100 µM, the TGI [5] was 59.8 µM and the TGI [6] was 77.9 µM. It also gave a TGI [8] of 31.7 µM.
With `O=C(c1ccccc1)N1CCc2c([nH]c3ccccc23)C1` the TGI [9] was 74.9 µM, the TGI [1] was > 100 µM and the TGI [2] was 86.4 µM. The TGI [3] was 43.1 µM, the TGI [4] was > 100 µM and the TGI [5] was 64.4 µM. For the same compound, the TGI [6] was > 100 µM and the TGI [8] was 65.1 µM.
`C/C(=N\NC(N)=S)c1ccc(Oc2ccccc2)cc1` was tested, and the TGI [9] was 10.9 µM, the TGI [1] was 50.4 µM and the TGI [3] was 23 µM. For the same compound, the TGI [4] was 16.9 µM, the TGI [5] was 17.4 µM and the TGI [6] was 36.3 µM. The TGI [7] was 26.2 µM and the TGI [8] was 17.9 µM.
`BrC(/C=N/Nc1nnc(-c2ccccc2)c(-c2ccccc2)n1)C(Br)c1ccccc1` (stereo not drawn) was tested, and the TGI [9] was 70.7 µM, the TGI [1] was > 100 µM and the TGI [2] was > 100 µM. The TGI [3] was 79.5 µM, the TGI [4] was > 100 µM and the TGI [5] was > 100 µM. For the same compound, the TGI [6] was > 100 µM, the TGI [7] was > 100 µM and the TGI [8] was > 100 µM.
For `O=c1ccn([C@@H]2C[C@H](CO)CS(=O)C2)c(=O)[nH]1` (stereo partly drawn), the TGI [9] was > 100 µM, the TGI [1] was > 100 µM and the TGI [2] was > 100 µM. The TGI [3] was > 100 µM, the TGI [4] was > 100 µM and the TGI [5] was > 100 µM. For the same compound, the TGI [6] was > 100 µM and the TGI [8] was > 100 µM.
For `CCOc1ccc(/C=C/C(=O)c2sc(NNC(C)=O)nc2C)cc1`, the TGI [9] was > 100 µM, the TGI [1] was > 100 µM and the TGI [2] was > 100 µM. For the same compound, the TGI [3] was > 100 µM, the TGI [4] was > 100 µM and the TGI [5] was > 100 µM. The TGI [6] was > 100 µM, the TGI [7] was > 100 µM and the TGI [8] was > 100 µM.
For `C#CC[C@]12CC(=O)CC[C@H]1CC1(C2)OCCO1`, the TGI [9] was > 100 µM, the TGI [2] was > 100 µM and the TGI [3] was > 100 µM. The TGI [4] was > 100 µM, the TGI [5] was > 100 µM and the TGI [6] was > 100 µM. The TGI [7] was > 100 µM and the TGI [8] was > 100 µM.
For `COc1cc(CC2c3cc(OC)c(OC)cc3CCN2C)c(C(=O)O)cc1OC` (stereo not drawn), the TGI [9] was > 100 µM, the TGI [1] was > 100 µM and the TGI [3] was > 100 µM. For the same compound, the TGI [4] was > 100 µM, the TGI [5] was > 100 µM and the TGI [6] was > 100 µM. For the same compound, the TGI [7] was > 100 µM and the TGI [8] was > 100 µM.
In the case of `CC[C@H]1CNC(=O)CC1CC(=O)OC` (stereo partly drawn), the TGI [1] is reported as > 100 µM, the TGI [2] is reported as > 100 µM and the TGI [4] is reported as > 100 µM. For the same compound, the TGI [5] was > 100 µM, the TGI [6] was > 100 µM and the TGI [7] was > 100 µM. The TGI [8] was > 100 µM.
In the case of `Cc1c(Cl)ccc2[s+]snc12`, the TGI [1] is reported as > 100 µM, the TGI [2] is reported as > 100 µM and the TGI [3] is reported as 43.7 µM. The TGI [4] was 62 µM, the TGI [5] was 95.1 µM and the TGI [6] was > 100 µM. For the same compound, the TGI [7] was 37.2 µM.
For `Cc1nc2ccccc2c(=O)n1/N=C(\N=Nc1ccc(Cl)cc1)c1ccc(N(C)C)cc1`, the TGI [1] was > 100 µM, the TGI [2] was > 100 µM and the TGI [4] was > 100 µM. The TGI [5] was > 100 µM, the TGI [6] was > 100 µM and the TGI [7] was > 100 µM. The TGI [8] was > 100 µM.
With `N#CC1(C2CC(=O)N(c3ccccc3)C2=O)CCCCC1=O` (stereo not drawn) the TGI [9] was > 100 µM, the TGI [1] was > 100 µM and the TGI [3] was > 100 µM. The TGI [4] was > 100 µM, the TGI [5] was > 100 µM and the TGI [6] was > 100 µM. For the same compound, the TGI [7] was > 100 µM and the TGI [8] was > 100 µM.
With `O=C(Nc1cc(Cl)ccc1Cl)c1cc2ccccc2oc1=O` the TGI [9] was > 100 µM, the TGI [1] was > 100 µM and the TGI [3] was > 100 µM. The TGI [4] was > 100 µM, the TGI [5] was > 100 µM and the TGI [6] was > 100 µM. For the same compound, the TGI [7] was > 100 µM and the TGI [8] was > 100 µM.
Work on `CC1(C)OC2OC(/C=C/[N+](=O)[O-])C3OC(C)(C)OC3C2O1` (stereo not drawn) yielded a TGI [1] of 41.9 µM, a TGI [2] of 14.3 µM and a TGI [3] of 10.8 µM. It also gave a TGI [4] of 4.05 µM, a TGI [5] of 13.2 µM and a TGI [6] of 34.8 µM. It also gave a TGI [7] of 5.99 µM and a TGI [8] of 34.5 µM.
`CCCCCCCCCCCCNC(=O)N[C@H](C(=O)N[C@H]1/C=C/OCCNC(=O)/C=C/[C@H](C(C)C)NC1=O)C(C)C` was tested, and the GI50 [9] was 0.389 µM, the TGI [9] was 59.4 µM and the GI50 [1] was 36.6 µM. For the same compound, the TGI [1] was > 100 µM, the GI50 [2] was > 100 µM and the TGI [2] was > 100 µM. The GI50 [10] was > 100 µM, the TGI [10] was > 100 µM and the GI50 [3] was 14.7 µM. The TGI [3] was 55.7 µM, the GI50 [5] was 3.26 µM and the TGI [5] was > 100 µM. For the same compound, the GI50 [6] was > 75.3 µM, the TGI [6] was > 100 µM and the GI50 [7] was 3.65 µM. The TGI [7] was 28.2 µM.
In the case of `COC(=O)N1C=Cc2c(c(C)c3c([nH]c4ccccc43)c2C)C1C` (stereo not drawn), the TGI [9] is reported as 38.2 µM, the TGI [1] is reported as 32.1 µM and the TGI [2] is reported as 34.5 µM. The TGI [3] was 52 µM, the TGI [4] was 32.7 µM and the TGI [5] was 43.3 µM. The TGI [6] was 57.3 µM and the TGI [8] was 40 µM.
For `CN1CC[C@H](N(C)C(=O)N2CC(c3cc(F)ccc3F)=C[C@@]2(CO)c2ccccc2)[C@H](F)C1`, the GI50 [9] was 0.0294 µM, the TGI [9] was 40.8 µM and the TGI [1] was > 100 µM. For the same compound, the GI50 [2] was 0.0459 µM, the TGI [2] was > 100 µM and the GI50 [10] was 0.0205 µM. The TGI [10] was 1.3 µM, the GI50 [3] was 0.0337 µM and the TGI [3] was > 100 µM. For the same compound, the GI50 [5] was 0.0377 µM, the TGI [5] was > 100 µM and the GI50 [6] was 0.00588 µM. For the same compound, the TGI [6] was > 100 µM, the GI50 [7] was 0.0052 µM and the TGI [7] was 5.13 µM.
Compound `COc1ccc(-c2cc(-c3ccc(Cl)cc3)c(C#N)c(=O)n2CCCCCC(=O)Nc2ccccc2N)cc1` has a GI50 [9] of 1.43 µM, a TGI [9] of 7.28 µM and a GI50 [1] of 3.44 µM. For the same compound, the TGI [1] was 61.1 µM, the GI50 [2] was 2.04 µM and the TGI [2] was 5.97 µM. The GI50 [10] was 3.99 µM, the TGI [10] was > 100 µM and the GI50 [3] was 2.6 µM. For the same compound, the TGI [3] was 7.12 µM, the GI50 [5] was 5.16 µM and the TGI [5] was > 100 µM. For the same compound, the GI50 [6] was 5.36 µM, the TGI [6] was 38.4 µM and the GI50 [7] was 1.77 µM. The TGI [7] was 5.68 µM.
`O=C1C(=C2C(=O)c3ccccc3[N+]2=O)N([O-])c2ccccc21` was tested, and the TGI [9] was 57.7 µM, the TGI [1] was 42.2 µM and the TGI [3] was 48.5 µM. The TGI [4] was 88.6 µM, the TGI [5] was 48.7 µM and the TGI [6] was > 100 µM. For the same compound, the TGI [7] was 90.6 µM and the TGI [8] was 33.9 µM.
Work on `COc1cc2nc(NC3CCC3)nc(NC3CCN(C(C)C)CC3)c2cc1OC` yielded a GI50 [9] of 1.71 µM, a TGI [9] of 4.06 µM and a GI50 [1] of 4.65 µM. For the same compound, the TGI [1] was 23.4 µM, the GI50 [2] was 1.59 µM and the TGI [2] was 3.17 µM. The GI50 [10] was 15.6 µM, the TGI [10] was 65 µM and the GI50 [3] was 2.06 µM. It also gave a TGI [3] of 4.05 µM, a GI50 [5] of 2.83 µM and a TGI [5] of 8.48 µM. The GI50 [6] was 8 µM, the TGI [6] was 33.7 µM and the GI50 [7] was 1.38 µM. The TGI [7] was 2.85 µM.
